Calls of active or inactive are those of the source. The calls are words filed in the database; no cut-off is given here.
Assays:
[1] = system: Caenorhabditis elegans; experiment: Reduction in oxygen consumption rate in Caenorhabditis elegans at 5 uM incubated for 24 hrs; type: functional, organism-based
[2] = system: Caenorhabditis elegans; experiment: Activation of unfolded protein response in Caenorhabditis elegans mitochondria at 5 uM; type: functional, organism-based
[3] = system: PANC-1; experiment: Cytotoxicity against human PANC-1 cells incubated for 3 days by trypan blue assay; type: functional, cell-based; settings: PANC-1, 72 h
[4] = system: HepG2; experiment: Cytotoxicity against human HepG2 cells incubated for 3 days by trypan blue assay; type: functional, cell-based; settings: HepG2, 72 h
[5] = system: Caenorhabditis elegans; experiment: Induction of mitochondrial morphology change in Caenorhabditis elegans at 5 uM incubated for 24 hrs; type: functional, organism-based
[6] = system: Caenorhabditis elegans; experiment: Inhibition of mitochondrial electron transport chain in Caenorhabditis elegans assessed as increase in life span at 5 uM; type: functional, organism-based
[7] = Toxicity in iv dosed mouse assessed as maximum tolerated dose; type: organism-based; settings: in vivo

SMILES | Activity [1] | Activity [2] | IC50 [3] [nM] | IC50 [4] [nM] | Activity [5] | Activity [6] | MTD [7] [mg/kg]
C=CC/C=C\Cc1csc(C(C)(C)[C@H](O)C/C=C/C(=C)CCNC(=O)OC)n1 | Active | inactive | 112 | 115 | inactive | Active | –
C=CC/C=C\Cc1csc(C(C)(C)[C@@H](O)C/C=C\C(=C)CCNC(=O)OC)n1 | Active | inactive | – | – | inactive | Active | –
C=CC/C=C\Cc1csc(C(C)(C)[C@H](C/C=C\C(=C)CCNC(=O)OC)OC(C)=O)n1 | Active | inactive | – | – | inactive | Active | 0.1
C=CC/C=C\Cc1csc(C(C)(C)[C@H](O)C/C=C\C(=C)CCNC(=O)OC)n1 | Active | inactive | – | – | inactive | Active | –

Reference: ChEMBL document CHEMBL6127090, “Further Probing the Properties of a Unique Sponge-derived Alkaloid Through the Isolation of a New (-)-(5E)-(8R)-(14Z)-Mycothiazole Analogue” (J Nat Prod, 2024)
